{
  "source": "paper PMC5884906",
  "about": "“Single Administration of HBK-15—a Triple 5-HT1A, 5-HT7, and 5-HT3 Receptor Antagonist—Reverses Depressive-Like Behaviors in Mouse Model of Depression Induced by Corticosterone” (Molecular Neurobiology, 2017)",
  "origin": "cited, not measured here",
  "biological_target": "dopaminergic D2 receptors",
  "parameters": "method as in PMID 26554929",
  "settings": "read-out: affinity for dopaminergic D2 receptors, Ki; cited from earlier work",
  "data": [
    {"smiles": "COc1ccccc1N1CCN(CCOCCOc2c(C)cccc2Cl)CC1.Cl", "note": "[HBK-15, 1-[(2-chloro-6-methylphenoxy)ethoxyethyl]-4-(2-methoxyphenyl)piperazine hydrochloride]", "values": [
      {"measurement": "Ki", "result": 54, "unit": "nM"}
    ]}
  ]
}
